Patent publication US20260374792A1, “PHENYL-FREE BISCATIONIC QUATERNARY PHOSPHONIUM COMPOUNDS AS ANTIMICROBIAL AGENTS” (priority 2022, published 2026)
Where two headings read alike, the source gives them in different places.

What was measured:
[1] = test system: P. aeruginosa (PAO1); test: MIC against P. aeruginosa; assay type: cell-based; settings: Pseudomonas aeruginosa
Protocol: (§1) The term “minimum inhibitory concentration (MIC)” means the lowest concentration of an antimicrobial agent that will inhibit the visible growth of a microorganism after overnight incubation. MIC values against bacteria, for example, the Gram-positive Staphylococcus aureus and Enterococcus faecalis and the Gram-negative Escherichia coli and Pseudomonas aeruginosa were determined by standard methods. See also P. A. Wayne, Methods for Dilution Antimicrobial Tests for Bacteria that Grow Aerobically; Approved Standard, Ninth Edition, 2012, CLSI Document M07-A9, Vol. 32 No. 2.
(§2) Biological testing procedures were adapted from prior work by Melander and coworkers. For all biological assays, laboratory strains of methicillin-susceptible Staphylococcus aureus MSSA (SH1000), Staphylococcus aureus CA-MRSA (USA300-0114), Staphylococcus aureus HA-MRSA (ATCC 33591), Escherichia coli (MC4100), Enterococcus faecalis (OG1RF), Acinetobacter baumannii (ATCC 17978), were grown with shaking at 37 °C overnight from freezer stocks in 5 mL of the indicated media: SH1000, OG1RF, MC4100, USA300-0114, and ATCC 17978 were grown in BDTM Mueller-Hinton broth (MHB), whereas ATCC 33591 was grown in BDTM tryptic soy broth (TSB). The inoculum were then streaked onto Mueller-Hinton agar (MHA) plates and grown overnight at 37 °C. From the plates, single colonies were selected, diluted into 50 mL of fresh media and grown overnight at 37 °C with shaking for use in the MIC assays. Optical density (OD) measurements were obtained using a SpectraMax iD3 plate reader (Molecular Devices, United States).
(§3) Compounds were serially diluted two-fold from stock solutions (1.0 mM) to yield twelve 100 μL test concentrations, wherein the starting concentration of dimethyl sulfoxide (DMSO) was 2.5%. Overnight S. aureus, E. faecalis, E. coli, A. baumannii, USA300-0114 (CA-MRSA), and ATCC 33591 (HA-MRSA) cultures were diluted to ca. 10^6 CFU/mL in MHB or TSB and regrown to mid-exponential phase, as determined by optical density recorded at 600 nm (OD600). All cultures were then diluted again to ca. 10^6 CFU/mL and 100 μL were inoculated into each well of a U-bottom 96-well plate (Corning, 351177) containing 100 μL of compound solution. Plates were incubated statically at 37 °C for 72 hours upon which wells were evaluated visually for bacterial growth. The MIC was determined as the lowest concentration of compound resulting in no bacterial growth visible to the naked eye, based on the highest value in three independent experiments. Aqueous DMSO controls were conducted as appropriate for each compound.
(§4) The prepared library of biscationic amphiphilic compounds was assessed for performance as antibacterial disinfectants by determining the minimum inhibitory concentration (MIC) for each against a panel of bacteria. The bacteria selected for the study were chosen to evaluate the broad spectrum antimicrobial performance of the QPCs, and therefore, included both Gram-positive and Gram-negative bacterial strains, including those with known antimicrobial resistance mechanisms. These bacteria include the Gram-positive strains of methicillin-susceptible Staphylococcus aureus [MSSA; SH1000], community-acquired methicillin-resistant Staphylococcus aureus [CA-MRSA; USA 300-0114], hospital-acquired methicillin-resistant Staphylococcus aureus [HA-MRSA; ATCC 33591] and the […], Escherichia coli [MC4100], Acinetobacter baumannii [ATCC 17498] and Pseudomonas aeruginosa [PAO1].

[2] = test system: HA-MRSA (ATCC 33591); test: MIC against hospital-acquired methicillin-resistant S. aureus (HA-MRSA); assay type: cell-based; settings: Staphylococcus aureus, 72 h
Protocol: as §1, §2, §3, §4

[3] = test system: MSSA (SH1000); test: MIC against methicillin-susceptible S. aureus (MSSA); assay type: cell-based; settings: Staphylococcus aureus
Protocol: as §1, §2, §3, §4

[4] = test system: red blood cells; test: Red Blood Cell (RBC) Lysis Assay (lysis20); assay type: cell-based, sheep; settings: concentration inducing 20% RBC lysis; sheep blood, 1 hour, 37 °C
Protocol: RBC lysis assays were performed on mechanically defibrinated sheep blood (Hemostat Labs: DSB030). An aliquot of 1.5 mL blood was placed into a microcentrifuge tube and centrifuged at 3,800 rpm for ten minutes. The supernatant was removed, and the cells were resuspended with 1 mL of phosphate-buffered saline (PBS). The suspension was centrifuged as described above, the supernatant was removed, and cells were resuspended 4 additional times in 1 mL PBS. The final cell suspension was diluted twentyfold with PBS. Compounds were serially diluted with PBS two-fold from stock solutions (1.0 mM) to yield 100 μL of twelve test concentrations on a flat-bottom 96-well plate (Corning, 351172), wherein the starting concentration of DMSO was 2.5%. To each of the wells, 100 μL of the twentyfold suspension dilution was then inoculated. TritonX (1% by volume) served as a positive control (100% lysis marker) and sterile PBS served as a negative control (0% lysis marker). Samples were then placed in an incubator at 37 °C and shaken at 200 rpm. After 1 hour, the samples were centrifuged at 3,800 rpm for ten minutes. The absorbance of the supernatant was measured with a UV spectrometer at a 540 nm wavelength. The concentration inducing 20% RBC lysis was then calculated for each compound based upon the absorbances of the TritonX and PBS controls. Aqueous DMSO controls were conducted as appropriate for each compound.
The potential cytotoxicity of the compounds was also considered with the evaluation of hemolysis (lysis20) assays with 20% lysis of red blood cells serving as an indicator of potentially toxic compounds. Finally, the bioactivity of these compounds were benchmarked against a commercial benzalkonium chloride source (BAC; 70% benzyldimethyldodecylammonium chloride, and 30% benzyldimethyltetradecylammonium chloride) as well as some previously reported disinfectant compounds from the inventors' groups; included were bisQPC ^PhP6P-10,10 as well as ^PhP2P-10,10 and 12(2)12. A detailed description of the experimental procedures used to evaluate bioactivity and hemolysis assays are described above.

[5] = test system: A. baumannii; test: MIC against A. baumannii; assay type: cell-based; settings: Acinetobacter baumannii, 72 h
Protocol: as §1, §2, §3, §4

[6] = test system: CA-MRSA (USA300-0114); test: MIC against community-acquired methicillin-resistant S. aureus (CA-MRSA); assay type: cell-based; settings: Staphylococcus aureus, 72 h
Protocol: as §1, §2, §3, §4

[7] = test system: E. coli (MC4100); test: MIC against E. coli; assay type: cell-based; settings: Escherichia coli, 72 hours, 37 °C
Protocol: as §1, §2, §3, §4

[8] = test system: E. faecalis (OG1RF); test: MIC against E. faecalis; assay type: cell-based; settings: Enterococcus faecalis, 72 h
Protocol: as §1, §2, §3, §4

[9] = P. aeruginosa (PAO1), 72 hours, 37 °C, read-out: MIC
[10] = MSSA (SH1000), 72 hours, 37 °C, read-out: MIC

CCCCCCCCCCCCCC[P+](CC)(CC)CC[P+](CC)(CC)CCCCCCCCCCCCCC [^EtP2P-14,14]
MIC [1, 9]: 63 µM | MIC [2]: 4 µM | MIC [3, 10]: 8 µM | Lysis20 [4]: 8 µM | MIC [5]: 32 µM | MIC [6]: 4 µM | MIC [7]: 8 µM | MIC [8]: 63 µM

CCCCCCCCCCCCCCCC[P+](CC)(CC)CC[P+](CC)(CC)CCCCCCCCCCCCCCCC [^EtP2P-16,16]
MIC ([1]; PAO1, 72 h): 125 µM | MIC [2]: 32 µM | MIC ([3]; MSSA, 72 h): 16 µM | Lysis20 [4]: 16 µM | MIC [5]: 260 µM | MIC [6]: 16 µM | MIC [7]: 125 µM | MIC [8]: 63 µM

CCCCCCCC[P+](C)(C)CC[P+](C)(C)CCCCCCCC [^MeP2P-8,8]
MIC [1, 9]: > 250 µM | MIC [2]: 250 µM | MIC [3, 10]: 125 µM | Lysis20 [4]: 250 µM | MIC [5]: > 250 µM | MIC [6]: 125 µM | MIC [7]: > 250 µM | MIC [8]: > 250 µM

CCCCCCCCC[P+](C)(C)CC[P+](C)(C)CCCCCCCCC [^MeP2P-9,9]
MIC [1, 9]: > 250 µM | MIC [2]: 16 µM | MIC [3, 10]: 8 µM | Lysis20 [4]: 250 µM | MIC [5]: 250 µM | MIC [6]: 8 µM | MIC [7]: 125 µM | MIC [8]: 125 µM

CCCCCCCCCC[P+](C)(C)CC[P+](C)(C)CCCCCCCCCC [^MeP2P-10,10]
MIC [1, 9]: 32 µM | MIC [2]: 2 µM | MIC [3, 10]: 2 µM | Lysis20 [4]: 63 µM | MIC [5]: 63 µM | MIC [6]: 2 µM | MIC [7]: 16 µM | MIC [8]: 16 µM

CCCCCCCCCCC[P+](C)(C)CC[P+](C)(C)CCCCCCCCCCC [^MeP2P-11,11]
MIC [1, 9]: 8 µM | MIC [2]: 1 µM | MIC [3, 10]: 2 µM | Lysis20 [4]: 16 µM | MIC [5]: 16 µM | MIC [6]: 1 µM | MIC [7]: 4 µM | MIC [8]: 2 µM

CCCCCCCCCCCCCC[P+](C)(C)CC[P+](C)(C)CCCCCCCCCCC [^MeP2P-14,14]
MIC [1, 9]: 63 µM | MIC [2]: 8 µM | MIC [3, 10]: 8 µM | Lysis20 [4]: 8 µM | MIC [5]: 125 µM | MIC [6]: 4 µM | MIC [7]: 32 µM | MIC [8]: 32 µM

CCCCCCCCCCCCCCCC[P+](C)(C)CC[P+](C)(C)CCCCCCCCCCC [^MeP2P-16,16]
MIC [1, 9]: > 250 µM | MIC [2]: 63 µM | MIC [3, 10]: 32 µM | Lysis20 [4]: 125 µM | MIC [5]: > 250 µM | MIC [6]: 32 µM | MIC [7]: 250 µM | MIC [8]: 250 µM

CCCCCCCCCC[P+](CC[P+](CCCCCCCCCC)(c1ccccc1)c1ccccc1)(c1ccccc1)c1ccccc1 [^PhP2P-10,10, reference compound]
MIC [1, 9]: 8 µM | MIC [2]: 1 µM | MIC [3, 10]: 1 µM | Lysis20 [4]: 16 µM | MIC [5]: 2 µM | MIC [6]: 0.5 µM | MIC [7]: 4 µM | MIC [8]: 8 µM
